Measurements from patent US8748426B2, “Inhibitors of diacylglycerol acyl transferase” (Piramal Enterprises Limited, priority 2009, dated 2014).

What follows are molecules tested against T1, hDGAT1 (Homo sapiens, UniProt O75907) (assay: In-vitro DGAT1 assay (14C oleoyl CoA, hDGAT1 microsomes from Sf9 cells)). Conditions: at 1 μM.
T1 sequence (O75907 1-488): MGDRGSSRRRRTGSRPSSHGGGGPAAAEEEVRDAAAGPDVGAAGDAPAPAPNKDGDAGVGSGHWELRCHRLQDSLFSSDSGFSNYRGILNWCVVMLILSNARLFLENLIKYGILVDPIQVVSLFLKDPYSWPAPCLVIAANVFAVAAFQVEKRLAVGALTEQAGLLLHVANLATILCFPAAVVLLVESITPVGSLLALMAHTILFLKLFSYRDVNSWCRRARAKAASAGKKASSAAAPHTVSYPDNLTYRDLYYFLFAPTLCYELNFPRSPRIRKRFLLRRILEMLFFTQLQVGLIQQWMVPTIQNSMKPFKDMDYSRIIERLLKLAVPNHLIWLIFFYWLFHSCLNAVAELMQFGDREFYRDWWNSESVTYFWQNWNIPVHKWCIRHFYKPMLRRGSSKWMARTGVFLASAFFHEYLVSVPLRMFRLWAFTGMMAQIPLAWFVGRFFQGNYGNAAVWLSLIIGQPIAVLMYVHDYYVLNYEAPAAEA
Procedure: Sf9 cells were seeded in spinner flasks on day 0 at a cell density of 1×10^6 and infected on day 1 with hDGAT1 baculovirus at a multiplicity of infection (MOI) of 5 and a cell density of 2×10^6. On day 3 (or 66-72 h), cells were harvested and centrifuged at 2500×g for 10 min. Pellet was resuspended in lysis buffer (100 mM sucrose, 50 mM KCl, 40 mM KH2PO4, 30 mM EDTA, pH 7.2) and passed through 21-gauge needle approximately 10 times. […] The supernatant was subjected to centrifugation at 35,000 rpm in a Beckman Ti-45 rotor at 4° C. for 1 h. The resultant pellet containing the microsomes wasere resuspended overnight in 1 mL of lysis buffer and total protein concentration was estimated using Bradford Reagent. Microsomes were aliquoted and stored at −80° C.
Frozen aliquots of hDGAT1 containing microsomes were thawed (5-10 mg/mL total protein) on ice and diluted to a working stock of 1 mg/mL with DGAT Assay Buffer (DAB).
The assay was performed in duplicates in a reaction volume of 100 μL. […] Procedure:
The reaction was started by the addition of 2.5 μL of 1 mg/mL of microsomes (iv) to the mixture and incubated at 37° C. for 10 min. […] The mixture was vortexed and the triglycerides formed were extracted into the organic heptane phase.

Structure (SMILES)	% Inhibition of hDGAT1
COc1cc(NC(=O)c2ccc(-c3ccccc3)cc2)ccc1-c1ccc2c(c1)C(=O)N([C@H](C(=O)O)C(C)C)C2 [Example 458, (S)-2-(6-(4-Biphenyl-4-ylcarboxamido-2-methoxyphenyl)-1-oxoisoindolin-2-yl)-3-methylbutanoic acid]	++ (>50% Inhibition)
O=C(Nc1ccc(-c2ccc3c(c2)C(=O)N([C@H]2CC[C@H](C(=O)O)CC2)C3)cc1)c1cccc(Cl)c1 [Example 559, (1r,4r)-4-(6-(4-(3-Chlorobenzamido)phenyl)-1-oxoisoindolin-2-yl)cyclohexane carboxylic acid]	++ (>50% Inhibition)
Cc1ccc(NC(=O)Nc2ccc(-c3ccc4c(c3)C(=O)N([C@H](C(=O)O)C(C)C)C4)cc2)cc1 [Example 24]	+ (10-50% Inhibition)

Same assay, conditions: read-out: % Inhibition of hDGAT1

Structure (SMILES)	inhibition at 1 µM
CC(C)[C@@H](C(=O)O)N1Cc2ccc(-c3ccc(NC(=O)c4ccc(C(C)(C)C#N)cc4)cc3)cc2C1=O [Example 631, (S)-2-(6-(4-(4-(2-Cyanopropan-2-yl)benzamido)phenyl)-1-oxoisoindolin-2-yl)-3-methylbutanoic acid]	> 50%
CC(C)[C@@H](C(=O)O)N1Cc2ccc(-c3ccc(NC(=O)NCc4ccccc4)cc3)cc2C1=O [Example 18, (S)-2-(6-(4-(3-Benzylureido)phenyl)-1-oxoisoindolin-2-yl)-3-methylbutanoic acid]	10 to 50%
CC(C)[C@@H](C(=O)O)N1Cc2ccc(-c3ccc(NC(=O)c4ccc(C5CCCCC5)cc4)cc3)cc2C1=O [Example 174, (S)-2-(6-(4-(4-Cyclohexylbenzamido)phenyl)-1-oxoisoindolin-2-yl)-3-methyl butanoic acid]	> 50%
COc1ccc(C(=O)Nc2ccc(-c3ccc4c(c3)C(=O)N([C@H](C(=O)O)C(C)C)C4)cc2)cc1 [Example 104, (S)-2-(6-(4-(4-Methoxybenzamido)phenyl)-1-oxoisoindolin-2-yl)-3-methyl butanoic acid]	> 50%
CC(C)[C@@H](C(=O)O)N1Cc2ccc(-c3ccc(NS(=O)(=O)Cc4ccccc4)cc3)cc2C1=O [Example 94, (S)-3-Methyl-2-(1-oxo-6-(4-(phenylmethylsulfonamido)phenyl)isoindolin-2-yl)butanoic acid]	10 to 50%
CC(C)[C@@H](C(=O)O)N1Cc2cc(-c3ccc(NC(=S)Nc4cccc(Cl)c4)cc3)ccc2C1=O [Example 267, (S)-2-(5-(4-(3-(3-Chlorophenyl)thioureido)phenyl)-1-oxoisoindolin-2-yl)-3-methylbutanoic acid]	10 to 50%
CC(C)(C(=O)O)N1Cc2ccc(-c3ccc(NC(=O)c4ccc(Cl)cc4)cc3)cc2C1=O [Example 521, 2-(6-(4-(4-Chlorobenzamido)phenyl)-1-oxoisoindolin-2-yl)-2-methylpropanoic acid]	> 50%
CCCCCc1ccc(C(=O)Nc2ccc(-c3ccc4c(c3)C(=O)N([C@H](C(=O)O)C(C)C)C4)nn2)cc1 [Example 500, (S)-3-Methyl-2-(1-oxo-6-(6-(4-pentylbenzamido)pyridazin-3-yl)isoindolin-2-yl)butanoic acid]	> 50%
CC(C)[C@@H](C(=O)O)N1Cc2cc(-c3ccc(NC(=O)c4ccc(F)cc4)cc3)ccc2C1=O [Example 307, (S)-2-(5-(4-(4-Fluorobenzamido)phenyl)-1-oxoisoindolin-2-yl)-3-methylbutanoic acid]	10 to 50%
O=C(Nc1ccc(-c2ccc3c(c2)C(=O)N(C2CCCC(C(=O)O)C2)C3)cc1)c1cccc(Cl)c1 (stereo not drawn) [Example 547, 3-(6-(4-(3-Chlorobenzamido)phenyl)-1-oxoisoindolin-2-yl)cyclohexane carboxylic acid]	> 50%
COc1cccc(NC(=S)Nc2ccc(-c3ccc4c(c3)CN([C@H](C(=O)O)C(C)C)C4=O)cc2)c1 [Example 263, (S)-2-(5-(4-(3-(3-Methoxyphenyl)thioureido)phenyl)-1-oxoisoindolin-2-yl)-3-methyl butanoic acid]	10 to 50%
Cc1cc(C)c(C(=O)Nc2ccc(-c3ccc4c(c3)C(=O)N([C@H](C(=O)O)C(C)C)C4)cc2)c(C)c1 [Example 154, (S)-3-Methyl-2-(1-oxo-6-(4-(2,4,6-trimethylbenzamido)phenyl)isoindolin-2-yl)butanoic acid]	10 to 50%
COc1ccccc1C(=O)Nc1ccc(-c2ccc3c(c2)C(=O)N([C@H](C(=O)O)C(C)C)C3)cc1 [Example 160, (S)-2-(6-(4-(2-Methoxybenzamido)phenyl)-1-oxoisoindolin-2-yl)-3-methyl butanoic acid]	> 50%
CC(C)[C@@H](C(=O)O)N1Cc2ccc(-c3ccc(NC(=O)c4ccc(OC(F)(F)F)cc4)cc3Cl)cc2C1=O [Example 488, (S)-2-(6-(2-Chloro-4-(4-(trifluoromethoxy)benzamido)phenyl)-1-oxoisoindolin-2-yl)-3-methylbutanoic acid]	> 50%
Cc1ccc(NC(=O)Nc2ccc(-c3ccc4c(c3)C(=O)N([C@H](C(=O)O)C(C)C)C4)cc2F)cc1C [Example 436, (S)-2-(6-(4-(3-(3,4-Dimethylphenyl)ureido)-3-fluorophenyl)-1-oxoisoindolin-2-yl)-3-methylbutanoic acid]	> 50%
CCCCOc1ccc(C(=O)Nc2ccc(-c3ccc4c(c3)C(=O)N([C@H](C(=O)O)C(C)C)C4)c(C(F)(F)F)c2)cc1 [Example 432, (S)-2-(6-(4-(4-Butoxybenzamido)-2-(trifluoromethyl)phenyl)-1-oxoisoindolin-2-yl)-3-methylbutanoic acid]	10 to 50%
CC(C)[C@@H](C(=O)O)N1Cc2ccc(-c3ccc(NC(=O)c4ccc5c(c4)C(C)(C)CCC5(C)C)cc3)cc2C1=O [Example 176, (S)-3-Methyl-2-(1-oxo-6-(4-(5,5,8,8-tetramethyl-5,6,7,8-tetrahydronaphthalene-2-carboxamido)phenyl)isoindolin-2-yl)butanoic acid]	> 50%
CC(C)[C@@H](C(=O)O)N1Cc2ccc(-c3ccc(NC(=O)NC4CCCCC4)cc3)cc2C1=O [Example 34, (S)-2-(6-(4-(3-Cyclohexylureido)phenyl)-1-oxoisoindolin-2-yl)-3-methylbutanoic acid]	> 50%
CC(C)[C@@H](C(=O)O)N1Cc2ccc(-c3ccc(NC(=S)Nc4ccc(C#N)cc4)cc3)cc2C1=O [Example 68, (S)-2-(6-(4-(3-(4-Cyanophenyl)thioureido)phenyl)-1-oxoisoindolin-2-yl)-3-methyl butanoic acid]	> 50%
CC(C)[C@@H](C(=O)O)N1Cc2cc(-c3ccc(NS(=O)(=O)c4ccc(C(F)(F)F)cc4)cc3)ccc2C1=O [Example 299, (S)-3-Methyl-2-(1-oxo-5-(4-(4-(trifluoromethyl)phenylsulfonamido)phenyl)isoindolin-2-yl)butanoic acid]	10 to 50%
Cc1ccc(NC(=O)Nc2ccc(-c3ccc4c(c3)CN([C@H](C(=O)O)C(C)C)C4=O)cc2)cc1 [Example 241, (S)-3-Methyl-2-(1-oxo-5-(4-(3-p-tolylureido)phenyl)isoindolin-2-yl)butanoic acid]	> 50%
CC(C)[C@@H](C(=O)O)N1Cc2ccc(-c3ccc(NC(=O)Nc4ccccc4)cc3)cc2C1=O [Example 16, (S)-3-Methyl-2-(1-oxo-6-(4-(3-phenylureido)phenyl)isoindolin-2-yl)butanoic acid]	10 to 50%
CC(C)[C@@H](C(=O)O)N1Cc2cc(-c3ccc(NC(=S)Nc4ccccc4C(F)(F)F)cc3)ccc2C1=O [Example 271, (S)-3-Methyl-2-(1-oxo-5-(4-(3-(2-(trifluoromethyl)phenyl)thioureido)phenyl)isoindolin-2-yl)butanoic acid]	10 to 50%
CC(C)[C@@H](C(=O)O)N1Cc2cc(-c3ccc(NC(=O)Nc4cccc(C(F)(F)F)c4)cc3)ccc2C1=O [Example 247, (S)-3-Methyl-2-(1-oxo-5-(4-(3-(3-(trifluoromethyl)phenyl)ureido)phenyl)isoindolin-2-yl)butanoic acid]	> 50%
CCCCOc1ccc(C(=O)Nc2ccc(-c3ccc4c(c3)C(=O)N([C@H](C(=O)O)C(C)C)C4)nc2)cc1 [Example 412, (S)-2-(6-(5-(4-Butoxybenzamido)pyridin-2-yl)-1-oxoisoindolin-2-yl)-3-methylbutanoic acid]	> 50%
CC(C)[C@@H](C(=O)O)N1Cc2cc(-c3ccc(NS(=O)(=O)c4cccc(Cl)c4)cc3)ccc2C1=O [Example 295, (S)-2-(5-(4-(3-Chlorophenylsulfonamido)phenyl)-1-oxoisoindolin-2-yl)-3-methyl butanoic acid]	10 to 50%
COc1ccc(C(=O)Nc2ccc(-c3ccc4c(c3)C(=O)N([C@H](C(=O)O)C(C)C)C4)cc2)cc1OC [Example 142, (S)-2-(6-(4-(3,4-Dimethoxybenzamido)phenyl)-1-oxoisoindolin-2-yl)-3-methyl butanoic acid]	10 to 50%
